Test [1] has as its system T1, CbrR.
T1 construct: gene CJJ81176_0671
The conditions noted are these: labelled compound (32P); 10 mM Tris pH 8.0, 5 mM MgCl2, 100 mM NaCl; active-site mutant.
Target sequence in this assay (A0A0H3PJ41 whole entry E334A): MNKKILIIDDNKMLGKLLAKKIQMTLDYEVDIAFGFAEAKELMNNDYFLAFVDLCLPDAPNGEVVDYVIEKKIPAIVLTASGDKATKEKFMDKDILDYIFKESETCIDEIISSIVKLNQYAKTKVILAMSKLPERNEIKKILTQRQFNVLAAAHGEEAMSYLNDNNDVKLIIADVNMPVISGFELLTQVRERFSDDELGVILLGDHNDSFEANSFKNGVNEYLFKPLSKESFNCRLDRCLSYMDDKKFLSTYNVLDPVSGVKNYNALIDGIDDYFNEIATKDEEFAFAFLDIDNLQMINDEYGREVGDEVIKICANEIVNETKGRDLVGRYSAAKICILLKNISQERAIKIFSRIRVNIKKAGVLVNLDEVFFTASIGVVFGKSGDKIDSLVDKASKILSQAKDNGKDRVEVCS

Test [2] has as its system T1, CbrR. As to conditions: labelled compound (32P); 10 mM Tris pH 8.0, 5 mM MgCl2, 100 mM NaCl; I-site mutant.
Target sequence in this assay (A0A0H3PJ41 whole entry K323A/G324A/R325A/D326A): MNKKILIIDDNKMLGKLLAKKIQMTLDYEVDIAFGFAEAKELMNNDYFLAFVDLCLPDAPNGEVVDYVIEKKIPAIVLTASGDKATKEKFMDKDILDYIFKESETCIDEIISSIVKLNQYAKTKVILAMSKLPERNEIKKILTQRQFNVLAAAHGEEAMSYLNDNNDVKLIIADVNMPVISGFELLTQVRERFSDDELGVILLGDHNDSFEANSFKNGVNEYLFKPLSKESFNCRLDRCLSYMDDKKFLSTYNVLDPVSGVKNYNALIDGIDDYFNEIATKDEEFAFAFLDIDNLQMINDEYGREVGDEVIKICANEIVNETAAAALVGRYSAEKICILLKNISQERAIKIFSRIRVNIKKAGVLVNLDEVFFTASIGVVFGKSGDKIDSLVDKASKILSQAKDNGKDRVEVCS

Experimental findings from article PMC8779298, “The Campylobacter jejuni Response Regulator and Cyclic-Di-GMP Binding CbrR Is a Novel Regulator of Flagellar Motility” (Microorganisms, 2021) are described below.

In the case of `Nc1nc2c(ncn2[C@@H]2O[C@H](COP(=O)(O)OP(=O)(O)OP(=O)(O)O)[C@@H](O)[C@H]2O)c(=O)[nH]1` [GTP], the “DRaCALA, nitrocellulose spot” value in the test with CbrR [1] is listed as “did not affect binding of either GTP or c-di-GMP”.

For the compound `Nc1nc2c(ncn2[C@@H]2O[C@@H]3COP(=O)(O)O[C@H]4[C@@H](O)[C@H](n5cnc6c(=O)[nH]c(N)nc65)O[C@@H]4COP(=O)(O)O[C@H]3[C@H]2O)c(=O)[nH]1` [c-di-GMP], in the test with CbrR [1], the “DRaCALA, nitrocellulose spot” value is “did not affect binding of either GTP or c-di-GMP”. Besides, the binding entry in the test on CbrR [2] is “substitution of the I-site in the protein led to the loss of c-di-GMP binding”.
